{"source": "paper PMC5008636", "about": "“Phosphatidylserine and Phosphatidylethanolamine Bind to Protein Z Cooperatively and with Equal Affinity” (PLoS ONE, 2016)", "key": {"PZ [1]": {"molecular_target": "T1, PZ (Homo sapiens, UniProt P22891)", "T1 construct": "purchased Enzyme Research Laboratories (South Bend, IN, USA)", "T1 sequence (P22891 41-400)": "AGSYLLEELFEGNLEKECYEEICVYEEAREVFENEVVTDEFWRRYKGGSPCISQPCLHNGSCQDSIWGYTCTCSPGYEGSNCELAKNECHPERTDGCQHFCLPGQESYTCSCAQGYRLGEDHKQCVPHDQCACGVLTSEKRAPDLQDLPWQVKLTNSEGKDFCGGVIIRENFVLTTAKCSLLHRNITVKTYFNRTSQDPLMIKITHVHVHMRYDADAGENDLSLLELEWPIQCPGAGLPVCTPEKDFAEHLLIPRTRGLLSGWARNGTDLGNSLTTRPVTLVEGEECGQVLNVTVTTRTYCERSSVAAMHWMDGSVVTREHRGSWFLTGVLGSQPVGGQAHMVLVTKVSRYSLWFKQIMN", "test": "Binding of soluble lipids to PZ by intrinsic tryptophan fluorescence", "settings": "for effect of pre-incubation of PZ with C6PS on affinity of PZ towards the lipid: saturating amount of C6PS; for lower binding affinity to PZ compared to PS and PE: soluble lipids, 5 mM Ca2+; for Kd in 1 mM Ca2+ relative to Kd in 5 mM Ca2+: 1 mM vs 5 mM Ca2+; for binding to PZ with excess EDTA: 5 mM EDTA in the assay buffer", "procedure": "(§1) PZ intrinsic tryptophan fluorescence as a function of increasing concentration of soluble phospholipid was measured as described in [12] using a FluoroLog spectrofluorometer (Horiba Jobin-Yvon Inc., Edison, NJ) with an excitation wavelength of 285nm (band-pass 4 nm); emission was recorded at 340 nm (band-pass 4 nm). Each experiment was performed below the critical micelle concentration (CMC) of the soluble lipid. The CMC was determined under experimental conditions following pyrene fluorescence as a function of increasing lipid concentration. Apparent dissociation constants for binding of PZ to soluble lipids were obtained by fitting the experimental data to a simple, single-site binding model, using the assumption that [C6PL]free ≈ [C6PL]total"}, "fXa": {"molecular_target": "fXa", "parameters": "method as in PMID 21859710", "settings": "soluble lipid; read-out: Kd for binding of fXa; cited from earlier work"}, "[2]": {"test": "Critical micelle concentration by pyrene fluorescence", "assay_type": "physicochemical", "settings": "under experimental conditions", "procedure": "as §1\nSince pyrene is hydrophobic, partitioning into the interior of a micelle is manifested as a sharp increase in the ratio of the intensity of the pyrene emissions at 373 and 383 nm."}, "PZ [3]": {"molecular_target": "T1, PZ", "test": "Equilibrium dialysis of soluble C6PS/C6PE binding to PZ", "settings": "for Stoichiometry (Average) of lipid binding to PZ / ΔP (difference in phosphate concentration): 250 μM lipid, 5 mM Ca2+; for Stoichiometry (Average) of lipid binding to PZ: PZ 15, 20, 30 μM, calculated from Eq (1); for binding to PZ in equilibrium dialysis without Ca2+: absence of Ca2+ and presence of EDTA in the buffer", "procedure": "Experiments were performed using 2.0-ml Teflon dialysis cells (Harvard Apparatus, Holliston, MA) with the two cells separated by a 2000 Da molecular weight cut-off membrane. Both chambers contained equal amount of […], and one chamber contained the appropriate amount of PZ. Both chambers were allowed to equilibrate with each other at room temperature for 24 h while being rotated horizontally at 20 rpm. […] where, n is the stoichiometry of binding, [L] is the concentration of phospholipid added to the chamber, [P] is the protein concentration present in one half of the chamber, and Kd is the binding constant obtained from fluorescence experiments. Total protein concentration, [P], must be large enough to detect a measurable difference in phosphate concentration between the two chambers. In a recent analysis of soluble lipid binding to two non-equivalent sites on fIXa, it was shown that a narrow protein concentration range was sufficient to obtain stoichiometries for each site. […] For each protein concentration, three aliquots were withdrawn and phosphate concentrations were measured."}, "human fXa": {"molecular_target": "human fXa (Homo sapiens, UniProt P00742)", "sequence (P00742 41-179 limits assumed)": "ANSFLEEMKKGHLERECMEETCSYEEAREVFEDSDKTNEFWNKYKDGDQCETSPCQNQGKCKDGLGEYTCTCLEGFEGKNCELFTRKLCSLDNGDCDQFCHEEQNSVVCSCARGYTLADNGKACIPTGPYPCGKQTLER", "sequence (P00742 235-488 limits assumed)": "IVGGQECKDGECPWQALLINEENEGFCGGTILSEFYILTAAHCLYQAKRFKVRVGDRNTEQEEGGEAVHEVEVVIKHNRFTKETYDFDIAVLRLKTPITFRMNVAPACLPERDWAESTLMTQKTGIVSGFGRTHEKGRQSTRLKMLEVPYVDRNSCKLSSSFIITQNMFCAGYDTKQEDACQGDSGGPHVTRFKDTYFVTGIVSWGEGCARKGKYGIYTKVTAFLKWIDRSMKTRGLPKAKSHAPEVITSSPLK", "test": "FXa inhibition assay: AT-mediated inhibition of fXa amidolytic activity (S2765)", "assay_type": "biochemical", "settings": "40 nM PZ, 3 μM AT, no membrane", "procedure": "Amidolytic activity of human fXa was measured in an assay mixtures containing 5 nM fXa, 3 μM AT, 50 μM phospholipid membrane (DOPS:DOPC, DOPE:DOPC, and only DOPC) and 40 nM PZ in buffer (50 mM Tris, 175 mM NaCl, 0.6% PEG, 5 mM CaCl2, pH 7.4 using the substrate S2765 according to the method described in [31]. Briefly, mixtures (150 μl) containing fXa in appropriate buffer were incubated with or without PZ and with or without membrane at 37°C in the wells of a microtiter plate for 5 mins before adding AT to that. 1 mM of substrate S2765 was added then and initial rate of substrate cleavage was determined by measuring the absorbance at 405 nm using the plate reader (Molecular Devices, CA, USA). Factor Xa activity was determined by comparing the initial rate of substrate cleavage with a standard curve produced with various concentrations of factor Xa in the same buffer conditions."}, "[4]": {"settings": "150 nM PZ, 5 mM CaCl2, pH 7.5, 25° C, no pre-incubation lipid, single-site binding model, read-out: apparent Kd for binding to PZ"}, "[5]": {"settings": "1 mM Ca2+, read-out: binding Kd to PZ in presence of 1 mM Ca2+"}}, "note": "Entries after “also recorded” stand apart in the source; their conditions may differ. Like-named read-outs stand apart in the source and are kept apart here."}
{"molecule": "CCCCCC(=O)OC[C@H](COP(=O)(O)OC[C@@H](N)C(=O)O)OC(=O)CCCCC", "note": "[C6(D)PS]", "values": [{"measurement": "Kd", "setting": "PZ [1]; [4]", "value": "911 ± 300", "unit": "µM"}]}
{"molecule": "CCCCCC(=O)OC[C@H](COP(=O)(O)O)OC(=O)CCCCC", "note": "[C6PA]", "values": [{"measurement": "Kd", "setting": "PZ [1]; [4]", "value": "165 ± 25", "unit": "µM"}, {"measurement": "effect of pre-incubation of PZ with C6PS on affinity of PZ towards the lipid", "setting": "PZ [1]", "value": "did not alter the affinity; also recorded: did not enhance the affinity"}, {"measurement": "lower binding affinity to PZ compared to PS and PE", "setting": "PZ [1]", "value": "~ 3 fold"}]}
{"molecule": "CCCCCC(=O)OC[C@H](COP(=O)([O-])OCC[N+](C)(C)C)OC(=O)CCCCC", "note": "[C6PC]", "values": [{"measurement": "Kd", "setting": "PZ [1]; [4]", "value": "129 ± 32", "unit": "µM"}, {"measurement": "effect of pre-incubation of PZ with C6PS on affinity of PZ towards the lipid", "setting": "PZ [1]", "value": "did not alter the affinity; also recorded: did not enhance the affinity"}, {"measurement": "lower binding affinity to PZ compared to PS and PE", "setting": "PZ [1]", "value": "~ 3 fold"}]}
{"molecule": "CCCCCC(=O)OC[C@H](COP(=O)(O)OCCN)OC(=O)CCCCC", "note": "[C6PE, 1,2-dicaproyl-sn-glycero-3-phospho-L-ethanolamine]", "values": [{"measurement": "Kd", "setting": "PZ [1]; 150 nM PZ, 5 mM CaCl2, pH 7.5, 25° C, no pre-incubation lipid, single-site binding model, listed as PE, read-out: apparent Kd for binding to PZ", "value": "~48", "unit": "µM"}, {"measurement": "Kd", "setting": "PZ [1]; [4]", "value": "47.6 ± 8.2", "unit": "µM"}, {"measurement": "Kd", "setting": "PZ [1]; [5]", "value": 172, "unit": "µM"}, {"measurement": "Kd in 1 mM Ca2+ relative to Kd in 5 mM Ca2+", "setting": "PZ [1]", "value": "about 3.5 fold"}, {"measurement": "binding to PZ with excess EDTA", "setting": "PZ [1]", "value": "did not observe any binding"}, {"measurement": "Kd", "setting": "fXa", "value": 91, "unit": "µM"}, {"measurement": "critical micelle concentration (CMC)", "setting": "[2]", "value": 1.2, "unit": "mM"}, {"measurement": "Stoichiometry (Average) of lipid binding to PZ", "setting": "PZ [3]", "value": "2.0 (1.93 ± 0.2)"}, {"measurement": "ΔP (difference in phosphate concentration)", "setting": "PZ [3]; [PZ] 15 μM", "value": "28.9 ± 0.08"}, {"measurement": "ΔP (difference in phosphate concentration)", "setting": "PZ [3]; [PZ] 20 μM", "value": "31.8 ± 0.2"}, {"measurement": "ΔP (difference in phosphate concentration)", "setting": "PZ [3]; [PZ] 30 μM", "value": "42.8 ± 0.6"}, {"measurement": "binding to PZ in equilibrium dialysis without Ca2+", "setting": "PZ [3]", "value": "did not detect any binding"}]}
{"molecule": "CCCCCC(=O)OC[C@H](COP(=O)(O)OCC(O)CO)OC(=O)CCCCC", "note": "(stereo partly shown) [C6PG]", "values": [{"measurement": "Kd", "setting": "PZ [1]; [4]", "value": "131 ± 39", "unit": "µM"}, {"measurement": "effect of pre-incubation of PZ with C6PS on affinity of PZ towards the lipid", "setting": "PZ [1]", "value": "did not alter the affinity; also recorded: did not enhance the affinity"}, {"measurement": "lower binding affinity to PZ compared to PS and PE", "setting": "PZ [1]", "value": "~ 3 fold"}]}
{"molecule": "CCCCCC(=O)OC[C@H](COP(=O)(O)OC[C@H](N)C(=O)O)OC(=O)CCCCC", "note": "[C6PS, 1,2-dicaproyl-sn-glycero-3-phospho-L-serine]", "values": [{"measurement": "Kd", "setting": "PZ [1]; [4]", "value": "47.7 ± 10.7", "unit": "µM"}, {"measurement": "Kd", "setting": "PZ [1]; [5]", "value": 165, "unit": "µM"}, {"measurement": "Kd in 1 mM Ca2+ relative to Kd in 5 mM Ca2+", "setting": "PZ [1]", "value": "about 3.5 fold"}, {"measurement": "binding to PZ with excess EDTA", "setting": "PZ [1]", "value": "did not observe any binding"}, {"measurement": "Kd", "setting": "fXa", "value": 86, "unit": "µM"}, {"measurement": "critical micelle concentration (CMC)", "setting": "[2]", "value": 0.95, "unit": "mM"}, {"measurement": "Stoichiometry (Average) of lipid binding to PZ", "setting": "PZ [3]", "value": "2.0 (1.96 ± 0.1)"}, {"measurement": "ΔP (difference in phosphate concentration)", "setting": "PZ [3]; [PZ] 15 μM", "value": "27.6 ± 0.2"}, {"measurement": "ΔP (difference in phosphate concentration)", "setting": "PZ [3]; [PZ] 20 μM", "value": "32.3 ± 0.09"}, {"measurement": "ΔP (difference in phosphate concentration)", "setting": "PZ [3]; [PZ] 30 μM", "value": "45.3 ± 0.1"}, {"measurement": "binding to PZ in equilibrium dialysis without Ca2+", "setting": "PZ [3]", "value": "did not detect any binding"}]}
{"molecule": "PZ: human Protein Z, 62 kDa vitamin K-dependent cofactor", "values": [{"measurement": "effect of inclusion of PZ on AT inhibition of fXa", "setting": "human fXa", "value": "essentially no effect"}]}
